Patent US20210267194A1, “SEED TREATMENT METHOD” (priority 2018, published 2021)
Converted amounts (≈) assume the structure as drawn. Like-named read-outs stand apart in the source and are kept apart here.

How the values were obtained:
[1] = footnote a: Chemistry Dashboard of the US Environmental Protection Agency; cited from earlier work
[2] = Density of the active ingredient (Table 1); type: physicochemical
[3] = physchem; details: water
[4] = Solubility in water of the active ingredient (Table 1); details: for solubility: water
[5] = footnote a: Chemistry Dashboard of the US Environmental Protection Agency; cited from earlier work; remark: listed apart in the source

CC(C1CC1)C(O)(Cn1cncn1)c1ccc(Cl)cc1 (stereo not drawn) [Cyproconazole]
Density [1]: 1.31^a g/mL

CC(C)(C)C(O)(CCc1ccc(Cl)cc1)Cn1cncn1 (stereo not drawn) [Tebuconazole]
Density [2]: 1.25 g/mL

CC(C)(C)C(O)C(Oc1ccc(Cl)cc1)n1cncn1 (stereo not drawn) [Triadimenol]
Density [2]: 1.27 g/mL
solubility [3]: 72 µg/mL (≈ 243 µM)

O=c1c2cc(F)ccc2nc(-n2cncn2)n1-c1ccc(Cl)cc1Cl [Fluquinconazole]
Density [2]: 1.58 g/mL

O=C(NCCc1ncc(C(F)(F)F)cc1Cl)c1ccccc1C(F)(F)F [Fluopyram]
Density [2]: 1.53 g/mL
solubility [4]: 16 µg/mL (≈ 40.3 µM)

N#Cc1c[nH]cc1-c1cccc2c1OC(F)(F)O2 [Fludioxinil]
Density [2]: 1.54 g/mL
Solubility in Water [4]: 1.8 µg/mL (≈ 7.25 µM)

N#Cc1ccccc1NC(=O)c1snc(Cl)c1Cl [Isotianil]
Density [1]: 1.56^a g/mL
Solubility in Water [4]: 0.5 µg/mL (≈ 1.68 µM)

CNC(=O)c1cc(C#N)cc(C)c1NC(=O)c1cc(Br)nn1-c1ncccc1Cl [Cyantraniliprole]
Density [1]: 1.65^a g/mL

CC(C)C1CCC(Cc2ccc(Cl)cc2)C1(O)Cn1cncn1 (stereo not drawn) [Ipconazole]
Density [2]: 1.2 g/mL
solubility [3]: 9.34 µg/mL (≈ 28 µM)

CNC(=O)Oc1cc(C)c(SC)c(C)c1 [Methiocarb]
Density [2]: 1.25 g/mL
solubility [4]: 27 µg/mL (≈ 120 µM)

Cc1c(F)c(F)c(COC(=O)[C@@H]2[C@H](/C=C(\Cl)C(F)(F)F)C2(C)C)c(F)c1F (racemic) [Tefluthrin]
Density [2]: 1.48 g/mL

O=C(Nc1ccccc1)N(Cc1ccc(Cl)cc1)C1CCCC1 [Pencycuron]
Density [2]: 1.22 g/mL
Solubility in Water [4]: 0.3 µg/mL (≈ 0.912 µM)

CSC1=N[C@@](C)(c2ccccc2)C(=O)N1Nc1ccccc1 [Fenamidone]
Density [2]: 1.29 g/mL
solubility [3]: 7.8 µg/mL (≈ 25 µM)

CO/C=C(/C(=O)OC)c1ccccc1COc1cccc(C(F)(F)F)n1 [Picoxystrobin]
Solubility in Water [5]: 8.30^a mg/L
Density [1]: 1.28^a g/mL

N#Cc1nn(-c2c(Cl)cc(C(F)(F)F)cc2Cl)c(N)c1[S+]([O-])C(F)(F)F (stereo not drawn) [Fipronil]
Density [2]: 1.71 g/mL
solubility [3]: 3.78 µg/mL (≈ 8.65 µM)

COCC(=O)N(c1c(C)cccc1C)[C@H](C)C(=O)OC [Metalaxyl-M]
Density [1]: 1.09^a g/mL

CCCC1COC(Cn2cncn2)(c2ccc(Cl)cc2Cl)O1 (stereo not drawn) [Propiconazole]
Density [1]: 1.39^a g/mL

CC1(C)C(C=C(Cl)Cl)C1C(=O)OC(C#N)c1ccc(F)c(Oc2ccccc2)c1 (stereo not drawn) [Beta-Cyfluthrin]
Density [2]: 1.35 g/mL
Solubility in Water [4]: 0.0012 µg/mL (≈ 0.00276 µM)

CO/N=C(/C1=NOCCO1)c1ccccc1Oc1ncnc(Oc2ccccc2Cl)c1F [Fluoxastrobin]
Density [2]: 1.42 g/mL
solubility [4]: 2.29 µg/mL (≈ 4.99 µM)

N#C/N=C1\SCCN1Cc1ccc(Cl)nc1 [Thiacloprid]
Density [2]: 1.46 g/mL
solubility [4]: 184 µg/mL (≈ 728 µM)

OC(Cc1ccccc1Cl)(Cn1nc[nH]c1=S)C1(Cl)CC1 (stereo not drawn) [Prothioconazole]
Density [2]: 1.36 g/mL
solubility [4]: 300 µg/mL (≈ 871 µM)

O=C1C=C(N(Cc2ccc(Cl)nc2)CC(F)F)CO1 [Flupyradifurone]
Density [2]: 1.43 g/mL
Solubility in Water [4]: 3200 µg/mL (≈ 11100 µM)

Spinosad
Solubility in Water [5]: 295^a mg/L
Density [1]: 1.20^a g/mL

CON=C(C(=O)OC)c1ccccc1CON=C(C)c1cccc(C(F)(F)F)c1 [Trifloxystrobin]
Density [2]: 1.36 g/mL
solubility [3]: 0.61 µg/mL (≈ 1.49 µM)

CN/C(=N\[N+](=O)[O-])NCc1cnc(Cl)s1 [Clothianidin]
Density [2]: 1.61 g/mL
solubility [4]: 340 µg/mL (≈ 1360 µM)

Abamectin
Solubility in Water [5]: 36.4^a mg/L
Density [1]: 1.28^a g/mL

Cc1nn(C)c(F)c1C(=O)Nc1ccccc1C(C)CC(C)C (stereo not drawn) [Penflufen]
Density [1]: 1.18^a g/mL
Solubility in Water [4]: 10.9 µg/mL (≈ 34.3 µM)

CNC(=O)/C(=N/OC)c1ccccc1Oc1ccccc1 [Metominostrobin]
Density [1]: 1.13^a g/mL

CC(c1ccc(C(F)(F)F)nc1)S(C)(=O)=NC#N (stereo not drawn) [Sulfoxaflor]
Density [1]: 1.34^a g/mL

CN1COCN(Cc2cnc(Cl)s2)/C1=N\[N+](=O)[O-] [Thiamethoxam]
Solubility in Water [5]: 1278^a mg/L
Density [1]: 1.76^a g/mL

O=[N+]([O-])c1cc(C(F)(F)F)c(Cl)c([N+](=O)[O-])c1Nc1ncc(C(F)(F)F)cc1Cl [Fluazinam]
Solubility in Water [5]: 0.68^a mg/L
Density [1]: 1.80^a g/mL

Fc1ccc([C@]2(Cn3cncn3)O[C@H]2c2ccccc2Cl)cc1 (racemic) [Epoxiconazole]
Density [1]: 1.42^a g/mL

CC(C)NC(=O)N1CC(=O)N(c2cc(Cl)cc(Cl)c2)C1=O [Iprodione]
Density [2]: 1 g/mL
solubility [3]: 6.8 µg/mL (≈ 20.6 µM)

CC12CC1(C)C(=O)N(c1cc(Cl)cc(Cl)c1)C2=O (stereo not drawn) [Procymidone]
Density [1]: 1.43^a g/mL

COC(=O)N(OC)c1ccccc1COc1ccn(-c2ccc(Cl)cc2)n1 [Pyraclostrobin]
Solubility in Water [5]: 26.0^a mg/L
Density [1]: 1.34^a g/mL

CNC(=O)c1cc(Cl)cc(C)c1NC(=O)c1cc(Br)nn1-c1ncccc1Cl [Chlorantraniliprole]
Density [1]: 1.65^a g/mL

Cc1cc(C(F)(C(F)(F)F)C(F)(F)F)ccc1NC(=O)c1cccc(I)c1C(=O)NC(C)(C)CS(C)(=O)=O [Flubendiamide]
Density [1]: 1.78^a g/mL

Spinetoram
Solubility in Water [5]: 162^a mg/L
Density [1]: 1.18^a g/mL

CO/C=C(/C(=O)OC)c1ccccc1Oc1cc(Oc2ccccc2C#N)ncn1 [Azoxystrobin]
Solubility in Water [5]: 6.01^a mg/L
Density [1]: 1.34^a g/mL

CS/C(C)=N\OC(=O)N(C)SN(C)C(=O)O/N=C(\C)SC [Thiodicarb]
Density [2]: 1.47 g/mL
solubility [4]: 22.2 µg/mL (≈ 62.6 µM)

O=[N+]([O-])NC1=NCCN1Cc1ccc(Cl)nc1 [Imidacloprid]
Density [2]: 1.54 g/mL
Solubility in Water [4]: 610 µg/mL (≈ 2390 µM)

COC(=O)Nc1nc2ccccc2[nH]1 [Carbendazim]
Density [1]: 1.39^a g/mL
Density [2]: 1.45 g/mL
solubility [3]: 8 µg/mL (≈ 41.8 µM)

CC[S+]([O-])c1c(C#N)nn(-c2c(Cl)cc(C(F)(F)F)cc2Cl)c1N (stereo not drawn) [Ethiprole]
Density [2]: 1.69 g/mL

COCC(=O)N(c1c(C)cccc1C)C(C)C(=O)OC (stereo not drawn) [Metalaxyl]
Density [2]: 1.2 g/mL
solubility [4]: 8400 µg/mL (≈ 30100 µM)
